One assay deals with T1, hCRHR2 (Homo sapiens, UniProt Q13324).
T1 sequence (Q13324 1-411): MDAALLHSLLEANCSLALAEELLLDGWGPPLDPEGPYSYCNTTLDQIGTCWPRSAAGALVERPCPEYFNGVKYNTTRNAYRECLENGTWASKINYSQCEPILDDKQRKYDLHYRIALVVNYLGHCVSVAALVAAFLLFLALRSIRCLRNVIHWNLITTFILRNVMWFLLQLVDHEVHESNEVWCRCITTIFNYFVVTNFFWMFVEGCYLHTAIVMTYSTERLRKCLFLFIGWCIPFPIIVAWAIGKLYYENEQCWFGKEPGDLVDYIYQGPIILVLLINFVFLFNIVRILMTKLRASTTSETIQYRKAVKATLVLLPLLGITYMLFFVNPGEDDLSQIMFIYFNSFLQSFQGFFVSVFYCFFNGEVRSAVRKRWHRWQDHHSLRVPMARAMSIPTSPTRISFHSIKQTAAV
The experiment in a line: HTRF cAMP assay, determination of hCRHR2 potency (peptide libraries 5 conc., purified peptides 11 conc.). Format: cell-based. From the text:
HTRF (CisBio) cAMP assay: The assay technology has thoroughly been described in the CisBio HTRF cAMP assay Kit manual (# 62AM4PEC). Briefly, time resolved fluorescence technic was applied to measure cAMP. This technic is based on a competitive immunoassay using cryptate-labelled anti-cAMP antibody and d2-labeled cAMP. In the absence of cellular cAMP, the anti-cAMP cryptate conjugate may get into proximity to cAMP-d2 conjugate and energy (FRET) can be transferred from cryptate to d2.
CHO-K1 cells stably expressing the human corticotropin-releasing hormone receptor 2 (Eurofins/DiscoverX, Cat #95-0048C2 hCRHR2 stable monoclonal cell lines) were used as cells in suspension, brought to life from frozen cell stocks immediately before assay performance.
Concentration-response evaluation of compounds was performed with 5 concentrations of agonist peptides and EC50 values were calculated by nonlinear regression using sigmoid concentration-response with variable slope.
Concentration-response evaluation of compounds was performed with 11 concentrations of agonist peptides and EC50 values were calculated by nonlinear regression using sigmoid concentration-response with variable slope.
In general terms: In TR-FRET formats the signal depends on donor and acceptor labels being close together.

The next assay addresses T2, hCRHR1 (Homo sapiens, UniProt P34998).
T2 sequence (P34998 24-415): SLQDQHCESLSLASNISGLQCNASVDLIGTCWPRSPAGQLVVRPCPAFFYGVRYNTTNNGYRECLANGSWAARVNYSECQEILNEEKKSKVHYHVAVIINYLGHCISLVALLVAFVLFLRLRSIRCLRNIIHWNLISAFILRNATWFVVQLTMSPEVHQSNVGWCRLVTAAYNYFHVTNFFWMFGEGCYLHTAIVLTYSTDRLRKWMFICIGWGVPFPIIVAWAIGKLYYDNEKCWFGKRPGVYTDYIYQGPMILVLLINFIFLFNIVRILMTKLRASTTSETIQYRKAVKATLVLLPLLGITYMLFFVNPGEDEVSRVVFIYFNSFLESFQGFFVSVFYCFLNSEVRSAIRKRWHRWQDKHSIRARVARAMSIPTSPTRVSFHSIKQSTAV
Put plainly: HTRF cAMP assay, determination of hCRHR1 potency (peptide libraries 5 conc., purified peptides 11 conc.). Format: cell-based. From the text: HTRF (CisBio) cAMP assay: The assay technology has thoroughly been described in the CisBio HTRF cAMP assay Kit manual (# 62AM4PEC). Briefly, time resolved fluorescence technic was applied to measure cAMP. This technic is based on a competitive immunoassay using cryptate-labelled anti-cAMP antibody and d2-labeled cAMP. In the absence of cellular cAMP, the anti-cAMP cryptate conjugate may get into proximity to cAMP-d2 conjugate and energy (FRET) can be transferred from cryptate to d2. CHO-K1 cells stably expressing the human corticotropin-releasing hormone receptor 1 (Eurofins/DiscoverX Cat #95-0047C2 hCRHR1 stable monoclonal cell lines) were used as cells in suspension, brought to life from frozen cell stocks immediately before assay performance. […] Concentration-response evaluation of compounds was performed with 5 concentrations of agonist peptides and EC50 values were calculated by nonlinear regression using sigmoid concentration-response with variable slope. Concentration-response evaluation of compounds was performed with 11 concentrations of agonist peptides and EC50 values were calculated by nonlinear regression using sigmoid concentration-response with variable slope.

[1] abbreviates: Table 3, matched molecular pairs X^38 L vs Nle, peptide library of Example 4, read-out: hCRHR2 pEC50 (converted).
[2] abbreviates: Table 3, matched molecular pairs X^38 L vs Nle, peptide library of Example 4, read-out: hCRHR1 pEC50 (converted).

SMILES strings stand for the structures. Read-outs that look alike come from different tables or passages of the source. Starred links: 1 amine or outer side, 2 acyl side, 3 side chain; linkers in the order of their positions; H or OH if unused. Non-standard residues stand in square brackets, D forms with d. Residues, ends and D or L forms follow the SMILES beside them. Groups on a side chain read outwards from the residue. *: point of attachment. C20 diacid = O=C(O)CCCCCCCCCCCCCCCCCCC(=O)*; Pro(cis-4-F) = O=C(O)[C@@H]1C[C@H](F)CN1; γGlu = O=C(O)[C@H](CCC(=O)[*:2])N[*:1]; Nle = CCCC[C@H](N)C(=O)O; Ac5c = NC1(C(=O)O)CCCC1; AEEA = NCCOCCOCC(=O)O

As to `CCCC[C@H](NC(=O)[C@@H](NC(=O)[C@H](CCC(=O)O)NC(=O)[C@H](C)NC(=O)[C@H](CC(N)=O)NC(=O)[C@@H](NC(=O)[C@H](CCCCNC(=O)COCCOCCNC(=O)COCCOCCNC(=O)CC[C@H](NC(=O)CC[C@H](NC(=O)CCCCCCCCCCCCCCCCCCC(=O)O)C(=O)O)C(=O)O)NC(=O)[C@H](C)NC(=O)[C@H](CCC(N)=O)NC(=O)[C@H](CCC(=O)O)NC(=O)[C@H](CCCNC(=N)N)NC(=O)[C@H](C)NC(=O)[C@H](C)NC(=O)[C@H](CCCNC(=N)N)NC(=O)[C@H](C)NC(=O)[C@H](CCCNC(=N)N)NC(=O)[C@H](C)NC(=O)[C@H](CCC(N)=O)NC(=O)[C@H](CCC(=O)O)NC(=O)[C@H](CC(C)C)NC(=O)[C@H](CC(C)C)NC(=O)[C@@H](NC(=O)[C@H](CCC(N)=O)NC(=O)[C@H](CC(C)C)NC(=O)[C@H](CC(C)C)NC(=O)CNC(=O)[C@@H](NC(=O)[C@@H]1C[C@H](F)CN1C(=O)C1(NC(=O)[C@H](CC(=O)O)NC(=O)[C@H](CC(C)C)NC(=O)[C@H](CO)NC(=O)[C@H](CC(C)C)NC(=O)[C@@H](NC(=O)[C@@H](N)[C@@H](C)CC)C(C)C)CCCC1)[C@@H](C)CC)[C@@H](C)CC)[C@@H](C)O)[C@@H](C)CC)C(=O)N[C@@H](C)C(=O)N[C@@H](CCC(=O)O)C(=O)N[C@H](C(N)=O)C(C)C` [compound 87] (H-IVLSLD[Ac5c][Pro(cis-4-F)]IGLLQILLEQARARAAREQAK([AEEA-AEEA-γGlu-γGlu-C20 diacid])TNAEI[Nle]AEV-NH2), the EC50 is 0.316 nM on hCRHR2 (library peptides, matched molecular pairs L vs Nle in position X^38, read-out: Potency hCRHR2 pEC50 (converted)) and 2.51 nM on hCRHR1 (library peptides, matched molecular pairs L vs Nle in position X^38, read-out: Potency hCRHR1 pEC50 (converted)).
In the case of `CC[C@H](C)[C@H](N)C(=O)N[C@H](C(=O)N[C@@H](CC(C)C)C(=O)N[C@@H](CO)C(=O)N[C@@H](CC(C)C)C(=O)N[C@@H](CC(=O)O)C(=O)N[C@H](C(=O)N1CCC[C@H]1C(=O)N[C@H](C(=O)NCC(=O)N[C@@H](CC(C)C)C(=O)N[C@@H](CC(C)C)C(=O)N[C@@H](CCC(N)=O)C(=O)N[C@H](C(=O)N[C@@H](CC(C)C)C(=O)N[C@@H](CC(C)C)C(=O)N[C@@H](CCC(=O)O)C(=O)N[C@@H](CCC(N)=O)C(=O)N[C@@H](C)C(=O)N[C@@H](CCCNC(=N)N)C(=O)N[C@@H](C)C(=O)N[C@@H](CCC(N)=O)C(=O)N[C@@H](C)C(=O)N[C@@H](CCC(N)=O)C(=O)N[C@@H](CCCNC(=N)N)C(=O)N[C@@H](CCC(=O)O)C(=O)N[C@@H](CCC(N)=O)C(=O)N[C@@H](C)C(=O)N[C@@H](CCCCNC(=O)COCCOCCNC(=O)COCCOCCNC(=O)CC[C@H](NC(=O)CC[C@H](NC(=O)CCCCCCCCCCCCCCCCCCC(=O)O)C(=O)O)C(=O)O)C(=O)N[C@H](C(=O)N[C@@H](CC(N)=O)C(=O)N[C@@H](C)C(=O)N[C@@H](CCC(=O)O)C(=O)N[C@H](C(=O)N[C@@H](CC(C)C)C(=O)N[C@@H](C)C(=O)N[C@@H](CCC(=O)O)C(=O)N[C@H](C(N)=O)C(C)C)[C@@H](C)CC)[C@@H](C)O)[C@@H](C)CC)[C@@H](C)CC)C(C)C)C(C)C` [SEQ ID NO: 31] (H-IVLSLDVPIGLLQILLEQARAQAQREQAK([AEEA-AEEA-γGlu-γGlu-C20 diacid])TNAEILAEV-NH2), the figures for the EC50 on hCRHR2 (setting [1]) and at hCRHR1 (setting [2]) were 0.794 nM and 3980 nM, respectively.
The corresponding values for `CC[C@H](C)[C@H](N)C(=O)N[C@H](C(=O)N[C@@H](CC(C)C)C(=O)N[C@@H](CO)C(=O)N[C@@H](CC(C)C)C(=O)N[C@@H](CC(=O)O)C(=O)N[C@H](C(=O)N1CCC[C@H]1C(=O)N[C@H](C(=O)NCC(=O)N[C@@H](CC(C)C)C(=O)N[C@@H](CC(C)C)C(=O)N[C@@H](CCC(N)=O)C(=O)N[C@H](C(=O)N[C@@H](CC(C)C)C(=O)N[C@@H](CC(C)C)C(=O)N[C@@H](CCC(=O)O)C(=O)N[C@@H](CCC(N)=O)C(=O)N[C@@H](C)C(=O)N[C@@H](CCCNC(=N)N)C(=O)N[C@@H](C)C(=O)N[C@@H](CCCNC(=N)N)C(=O)N[C@@H](C)C(=O)N[C@@H](C)C(=O)N[C@@H](CCCNC(=N)N)C(=O)N[C@@H](CCC(N)=O)C(=O)N[C@@H](CCC(N)=O)C(=O)N[C@@H](C)C(=O)N[C@@H](CCCCNC(=O)COCCOCCNC(=O)COCCOCCNC(=O)CC[C@H](NC(=O)CC[C@H](NC(=O)CCCCCCCCCCCCCCCCCCC(=O)O)C(=O)O)C(=O)O)C(=O)N[C@H](C(=O)N[C@@H](CC(N)=O)C(=O)N[C@@H](C)C(=O)N[C@@H](CCC(=O)O)C(=O)N[C@H](C(=O)N[C@@H](CC(C)C)C(=O)N[C@@H](C)C(=O)N[C@@H](CCC(=O)O)C(=O)N[C@H](C(N)=O)[C@@H](C)CC)[C@@H](C)CC)[C@@H](C)O)[C@@H](C)CC)[C@@H](C)CC)C(C)C)C(C)C` [SEQ ID NO: 27] (H-IVLSLDVPIGLLQILLEQARARAARQQAK([AEEA-AEEA-γGlu-γGlu-C20 diacid])TNAEILAEI-NH2) are 0.316 nM and 63100 nM.
Consider `CCCC[C@H](NC(=O)[C@@H](NC(=O)[C@H](CCC(=O)O)NC(=O)[C@H](C)NC(=O)[C@H](CC(N)=O)NC(=O)[C@@H](NC(=O)[C@H](CCCCNC(=O)COCCOCCNC(=O)COCCOCCNC(=O)CC[C@H](NC(=O)CC[C@H](NC(=O)CCCCCCCCCCCCCCCCCCC(=O)O)C(=O)O)C(=O)O)NC(=O)[C@H](C)NC(=O)[C@H](CCC(=O)O)NC(=O)[C@H](CCC(N)=O)NC(=O)[C@H](CCCNC(=N)N)NC(=O)[C@H](CC(C)C)NC(=O)[C@H](C)NC(=O)[C@H](CCCNC(=N)N)NC(=O)[C@H](C)NC(=O)[C@H](CCCNC(=N)N)NC(=O)[C@H](C)NC(=O)[C@H](CCC(N)=O)NC(=O)[C@H](CCC(=O)O)NC(=O)[C@H](CC(C)C)NC(=O)[C@H](CC(C)C)NC(=O)[C@@H](NC(=O)[C@H](CCC(N)=O)NC(=O)[C@H](CC(C)C)NC(=O)[C@H](CC(C)C)NC(=O)CNC(=O)[C@@H](NC(=O)[C@@H]1CCCN1C(=O)[C@@H](NC(=O)[C@H](CC(=O)O)NC(=O)[C@H](CC(C)C)NC(=O)[C@H](CO)NC(=O)[C@H](CC(C)C)NC(=O)[C@@H](NC(=O)[C@@H](N)[C@@H](C)CC)C(C)C)C(C)C)[C@@H](C)CC)[C@@H](C)CC)[C@@H](C)O)[C@@H](C)CC)C(=O)N[C@@H](C)C(=O)N[C@@H](CCC(=O)O)C(=O)N[C@H](C(N)=O)C(C)C` [SEQ ID NO: 38] (H-IVLSLDVPIGLLQILLEQARARALRQEAK([AEEA-AEEA-γGlu-γGlu-C20 diacid])TNAEI[Nle]AEV-NH2), for which the EC50 on hCRHR2 (setting [1]) is 0.398 nM; at hCRHR1 (setting [2]), 63100 nM.

(Values after patent EP4810052A2, “HCRHR2 SELECTIVE POLYPEPTIDES” (Gubra A/S, priority 2023, dated 2026).)
